A word on the melting point: it is the temperature, or range, at which the solid turns liquid.

The results in this text go back to patent US7060822B1, “2-pyrazolin-5-ones” (Abbott GmbH & Co. KG, priority 1999, dated 2006).

For `Cc1ccc(C=C2C(=O)NN=C2OC(C)C)[nH]1` [Example 44, 3-Isopropoxy-4-[(5-methylpyrrol-2-yl)methylene]-2-pyrazolin-5-one], the melting point was in the range of 128 to 130 °C.

In turn, `Cc1[nH]c(C=C2C(=O)NN=C2C2CC2)c(C)c1CN(C)C` [Example 100, 3-Cyclopropyl-4-[(3,5-dimethyl-4-dimethylaminomethylpyrrol-2-yl)methylene]-2-pyrazolin-5-one] showed a melting point of 176 to 178 °C.

In turn, `Cc1[nH]c(C=C2C(=O)NN=C2c2cnccn2)c(C)c1C(=O)OCCN(C)C` [Example 120, 4-{[3,5-Dimethyl-4(2-dimethylaminoethyloxycarbonyl)pyrrol-2-yl]methylene}-3-pyrazinyl-2-pyrazolin-5-one] registered a melting point of 223 to 225 °C.

`Cc1[nH]c(C=C2C(=O)NN=C2c2cnccn2)c(C)c1CCN(C)C` [Example 191, 4-{[3,5-Dimethyl-4-(2-dimethylaminoethyl)pyrrol-2-yl]methylene}-3-pyrazinyl-2-pyrazolin-5-one] gave a melting point of 216 °C.

For `CCOC(=O)c1c[nH]c(C=C2C(=O)NN=C2c2cnccn2)c1-c1ccccc1` [Example 164, 4-[(4-Ethoxycarbonyl-3-phenylpyrrol-2-yl)methylene]-3-pyrazinyl-2-pyrazolin-5-one], the melting point fell in the range of 255 to 257 °C.

`CCOC(=O)c1c(C)[nH]c(C=C2C(=O)NN=C2CCc2ccccn2)c1C` [Example 149, 4-[(3,5-Dimethyl-4-ethoxycarbonylpyrrol-2-yl)methylene]-3-(2-pyridylethyl)-2-pyrazolin-5-one] registered a melting point of 180 to 182 °C.

For `CC(C)OC1=NNC(=O)C1=Cc1cn(C(C)C)c2ccccc12` [Example 250, 3-Isopropoxy-4-[(1-isopropylindol-3-yl)methylene]-2-pyrazolin-5-one], the melting point lay in the range of 161 to 163 °C.

`CCc1c(C)[nH]c(C=C2C(=O)NN=C2OC(C)C)c1C` [Example 36, 4-[(3,5-Dimethyl-4-ethylpyrrol-2-yl)methylene]-3-isopropoxy-2-pyrazolin-5-one] returned a melting point of 188 to 190 °C.

In turn, `O=C1NN=C(Nc2ccccc2)C1=Cc1c[nH]c2ncccc12` [Example 339, 4-[(7-Azaindol-3-yl)methylene]-3-phenylamino-2-pyrazolin-5-one] came in with a melting point of 249 to 252 °C.

As to `Cc1cc(C=C2C(=O)NN=C2OC(C)C)[nH]c1C` [Example 35, 4-[(4,5-Dimethylpyrrol-2-yl)methylene]-3-isopropoxy-2-pyrazolin-5-one], the melting point fell in the range of 195 to 197 °C.

Compound `O=C1NN=C(CCc2ccc(O)cc2)C1=Cc1ccc[nH]1` [Example 27, 3-(4-Hydroxyphenylethyl)-4-[(pyrrol-2-yl)methylene]-2-pyrazolin-5-one] yielded a melting point of 253 to 255 °C.

On to `O=C1NN=C(C2CCCC2)C1=Cc1c[nH]c2ccccc12` [Example 263, 3-Cyclopentyl-4-[(indol-3-yl)methylene]-2-pyrazolin-5-one], for which the melting point lay in the range of 300 to 304 °C.

As to `CCOC1=NNC(=O)C1=Cc1cc2c([nH]1)CCC=C2Cl` [Example 329, 4-[(4-Chloro-6,7-dihydroindol-2-yl)methylene]-3-ethoxy-2-pyrazolin-5-one], the melting point was in the range of 177 to 203 °C.

With `Cc1ccc(C=C2C(=O)NN=C2C2CC2)[nH]1` [Example 72, 3-Cyclopropyl-4-[(5-methylpyrrol-2-yl)methylene]-2-pyrazolin-5-one], the melting point was in the range of 170 to 172 °C.

`Cn1cc(C=C2C(=O)NN=C2C2CC2)c2ccccc21` [Example 273, 3-Cyclopropyl-4-[(1-methylindol-3-yl)methylene]-2-pyrazolin-5-one]: the melting point is 245 to 247 °C.

Take `CCc1ccc(C=C2C(=O)NN=C2C2CC2)[nH]1` [Example 74, 3-Cyclopropyl-4-[(5-ethylpyrrol-2-yl)methylene]-2-pyrazolin-5-one]: the melting point lay in the range of 163 to 165 °C.

`CC(C)OC1=NNC(=O)C1=Cc1ccc(C(=O)O)[nH]1` [Example 91, 4-[(5-Carboxypyrrol-2-yl)methylene]-3-isopropoxy-2-pyrazolin-5-one] showed a melting point of 235 to 237 °C.

`Cc1[nH]c(C=C2C(=O)NN=C2c2cnccn2)c(C)c1CCCO` [Example 187, 4-{[3,5-Dimethyl-4-(3-hydroxypropyl)pyrrol-2-yl]methylene}-3-pyrazinyl-2-pyrazolin-5-one] gave a melting point of 273 to 275 °C.

On to `O=C1NN=C(c2ccc[nH]2)C1=Cc1ccc[nH]1` [Example 67, 3-(Pyrrol-2-yl)-4-[(pyrrol-2-yl)methylene]-2-pyrazolin-5-one], for which the melting point lay in the range of 245 to 247 °C.

As to `COc1cccc(CC2=NNC(=O)C2=Cc2ccc[nH]2)c1` [Example 21, 3-(3-Methoxybenzyl)-4-[(pyrrol-2-yl)methylene]-2-pyrazolin-5-one], the melting point was in the range of 169 to 171 °C.

The compound `O=C1NN=C(c2ccncc2)C1=Cc1c[nH]c2ccccc12` [Example 262, 4-[(Indol-3-yl)methylene]-3-(4-pyridyl)-2-pyrazolin-5-one] had a melting point above 300 °C.

As to `CN(C)C1=NNC(=O)C1=Cc1c[nH]c2ccccc12` [Example 270, 3-Dimethylamino-4-[(indol-3-yl)methylene]-2-pyrazolin-5-one], the melting point lay in the range of 258 to 260 °C.

Regarding `O=C1NN=C(c2cccnc2)C1=Cc1c[nH]c2ncccc12`, the melting point is 212 to 215 °C.

In turn, `O=C1NN=C(CCc2ccc(Cl)cc2)C1=Cc1ccc[nH]1` [Example 34, 3-(4-Chlorophenylethyl)-4-[(pyrrol-2-yl)methylene]-2-pyrazolin-5-one] registered a melting point of 193 to 194 °C.

In turn, `Cc1cccc2c(C=C3C(=O)NN=C3CCc3ccccc3)c[nH]c12` [Example 246, 4-[(7-Methylindol-3-yl)methylene]-3-phenylethyl-2-pyrazolin-5-one] returned a melting point of 302 to 304 °C.

Take `O=C(CC1=NNC(=O)C1=Cc1ccc[nH]1)Nc1ccc(Cl)cc1` [Example 92, 3-(4-Chlorophenylaminocarbonylmethyl)-4-[(pyrrol-2-yl)methylene]-2-pyrazolin-5-one]: the melting point lay in the range of 240 to 242 °C.

As for `CCOC(=O)CC1=NNC(=O)C1=Cc1c[nH]c2ccccc12` [Example 254, 3-Ethoxycarbonylmethyl-4-[(indol-3-yl)methylene]-2-pyrazolin-5-one], the melting point was in the range of 235 to 237 °C.

In the case of `O=C1NN=C(C2CC2)C1=Cc1cn(CCCCO)c2ccccc12` [Example 261, 3-Cyclopropyl-4-{[1-(4-hydroxybutyl)indol-3-yl]methylene}-2-pyrazolin-5-one], the melting point was 215 to 216 °C.

Turning to `CCN(CC)CCc1c(C)[nH]c(C=C2C(=O)NN=C2c2cccnn2)c1C` [Example 207, 4-{[4-(2-Diethylaminoethyl)-3,5-dimethylpyrrol-2-yl]methylene}-3-(3-pyridazinyl)-2-pyrazolin-5-one], the melting point was in the range of 218 to 220 °C.

In turn, `Cc1[nH]c(C=C2C(=O)NN=C2c2cnccn2)c(C)c1CCO` [Example 181, 4-{[3,5-Dimethyl-4-(2-hydroxyethyl)pyrrol-2-yl]methylene}-3-pyrazinyl-2-pyrazolin-5-one] returned a melting point of 306 to 308 °C.
